Reference: patent US10010534B2, “Intravenous formulation and LC/MS/MS analysis method for GMC1” (THE BOARD OF REGENTS OF THE UNIVERSITY OF TEXAS SYSTEM, priority 2016, dated 2018)
Converted amounts (≈) assume the structure as drawn. Read-outs that look alike come from different tables or passages of the source.

Assays:
[1] = Short-term (bench-top) stability of GMC1 plasma and urine samples; assay type: physicochemical, rat; details: read-out: Mean Recovery ± SD, short-term stability; for recovery at 2 h: bench-top 2 h; for recovery at 4 h: bench-top 4 h; for recovery at 6 h: bench-top 6 h
Procedure: The short-term (bench-top) stability of GMC1 plasma and urine samples was evaluated by analyzing three sets each of GMC1 plasma and urine samples freshly prepared and placed on the bench-top for 2, 4, and 6 h, respectively. All the samples were compared with freshly prepared samples of the same concentration.

[2] = Freeze-thaw cycle stability of GMC1 plasma and urine samples; assay type: physicochemical, rat; details: read-out: Mean Recovery ± SD, freeze-thaw cycle stability
Procedure: The freeze-thaw cycle stability of GMC1 plasma and urine samples was evaluated by comparing QC plasma and urine samples exposed to three cycles of freeze (at −80° C.) and thaw (room temperature) to freshly prepared QC samples at the same concentration. Average recoveries from freeze-thawed plasma samples were 106±5.9%, 98.5±3.7% and 94.1±2.9% for GMC1 concentrations of 10, 200 and 400 ng/mL respectively. Average recovery from urine samples were 113±8.9%, 101±3.9%, and 86.6±7.5% for 10, 200 and 400 ng/mL GMC1 concentrations respectively.

[3] = Solubility of GMC1 in selected solvents by the shaker method; assay type: physicochemical; details: thermodynamic from solid, read-out: Mean Solubility ± SD
Procedure: Solubility information in various solvents is important in developing a suitable intravenous formulation of GMC1 for preclinical and clinical studies. The solubility of GMC1 in water, ethanol, polyethylene glycol 300 and 400, propylene glycol monocapryrate type I (Capyrol 90®), dimethyl sulfoxide (DMSO), dimethyl acetamide (DMA), Tween 80®, Labrasol®, Labrafac®, soybean oil, and oleic acid were determined by the shaker method. Briefly, excess amount of GMC1 was added to each of the selected solvents in a scintillation vial and shook using a reciprocating shaker at room temperature for 72 h. The samples were centrifuged at 14,000 rpm for 10 min and subsequently filtered through a 0.22 μm filtration unit, the resulting filtrate analyzed by LC/MS/MS to determine the GMC1 dissolved in the solvents. The study was conducted in triplicate.

[4] = Water-octanol partition co-efficient (log P), shaker method; assay type: physicochemical
Procedure: The water-octanol partition co-efficient (log P) of GMC1, a measure of how hydrophilic (“water-loving”) or hydrophobic (“water-fearing”) GMC1 is, was also evaluated using the shaker method.

[5] = system: 22Rv1 prostate cancer cell; experiment: 22Rv1 prostate cancer cell proliferation; assay type: cell-based
[6] = Processed sample (on-instrument or auto-sampler) stability; assay type: physicochemical; details: rat
Procedure: The stability of processed samples (on-instrument or auto-sampler stability) was also evaluated by comparing freshly prepared plasma and urine QC samples to samples placed on the auto-sampler for 2, 4, and 6 h respectively. One set of the plasma and urine QC samples was extracted with methanol containing IS, and another set with pure methanol without IS.

[7] = system: glucocorticoid receptor (GR); details: variety of cell lines; cited from earlier work
[8] = Pharmacokinetic study of the GMC1 co-solvent formulation, IV bolus; assay type: in vivo, male Sprague Dawley rats; details: rat, single 2 mg/kg IV bolus, three compartment model; for half-life / Vd: iv, 2 mg/kg
Procedure: Pharmacokinetic Studies of the GMC1 Co-Solvent Formulation. Pharmacokinetic study, which elucidates the fate of GMC1 in living systems, was performed. The pharmacokinetic study also verifies the applicability of the LC/MS/MS assay method and the formulation. A rat model was employed and male Sprague Dawley rats were selected as an animal model based on the similarity to humans in metabolism. Four male Sprague Dawley rats (body weight: 300-350 g) were cannulated through the jugular vein under anesthesia (using a cocktail of ketamine:acepromazine:xylazine at a ratio of 50:3.3:3.3 mg/kg). On the following day, the optimal co-solvent formulation of GMC1 (consisting of Labrasol® 50:50 PEG 300, and GMC1 10 mg/mL) was diluted ten times in normal saline to 1 mg/mL. Each rat was administered a 2 mg/kg IV bolus dose of GMC1. Heparinized blood samples were withdrawn from each rat at 5, 10, 15, 30, 60, 120, 240, 480, 720, 1440, 2880, 3240 min after injection. The blood samples were centrifuged at 14,000 rpm for 6 min and the supernatant plasma obtained and stored at −80° C. until analysis. Urine samples were also collected at 0, 60, 240, 480, 720, and 1440 min. The plasma and urine samples were analyzed (within 7 days) using the LC/MS/MS method described herein to obtain the concentration of GMC1.
The pharmacokinetic parameters for each rat were determined with Phoenix WinNonlin 6.3 software (Pharsight Corporation, Mountain View, Calif., USA) using a three compartment, which best described the fit for the IV bolus administration of GMC1, based on the observed and predicted fits of the plasma concentration versus time plot, the reduction in the sums of squares, and the Akaike's information criterion (AIC) for comparing compartmental models (Yamaoka et al., Journal of Pharmacokinetics and Biopharmaceutics 1978, 6(2):165-75). The three-compartment model is described by the equation: Ct=A·e^−αt+B·e^−βt+C·e^−γt where A, B and C are the coefficients, α, β, and γ are alpha, beta and gamma phase rate constants respectively, and Ct is the plasma concentration of GMC1 at time, t.
The weighting scheme of concentration^−2 (Y^−2) was used to determine the model that best fits the individual profiles.

androgen receptor (AR) = details: variety of cell lines; cited from earlier work
[9] = processed plasma sample (methanol extract), plasma extracted with methanol containing IS, read-out: Mean Recovery ± SD, auto-sampler stability, With IS
[10] = processed plasma sample (methanol extract), plasma extracted with pure methanol, read-out: Mean Recovery ± SD, auto-sampler stability, No IS
[11] = processed urine sample (methanol extract), urine extracted with methanol containing IS, read-out: Mean Recovery ± SD, auto-sampler stability, With IS
[12] = processed urine sample (methanol extract), urine extracted with pure methanol, read-out: Mean Recovery ± SD, auto-sampler stability, No IS

recovery at 2 h ([1]; rat plasma): 97.4 ± 8.89% | recovery at 4 h ([1]; rat plasma): 88.9 ± 2.63% | recovery at 6 h ([1]; rat plasma): 80.1 ± 5.71% | recovery at 2 h ([1]; rat urine): 94.2 ± 4.66% | recovery at 4 h ([1]; rat urine): 93.9 ± 0.76% | recovery at 6 h ([1]; rat urine): 93.7 ± 1.23% | recovery at 10 ng/mL ([2]; rat plasma, three cycles −80° C./room temperature): 106 ± 5.9% | recovery at 200 ng/mL ([2]; rat plasma, three cycles): 98.5 ± 3.7% | recovery at 400 ng/mL ([2]; rat plasma, three cycles): 94.1 ± 2.9% | recovery at 10 ng/mL ([2]; rat urine, three cycles): 113 ± 8.9% | recovery at 200 ng/mL ([2]; rat urine, three cycles): 101 ± 3.9% | recovery at 400 ng/mL ([2]; rat urine, three cycles): 86.6 ± 7.5% | solubility at 72 h ([3]; DMSO, organic solvent or mixture, DMSO, room temperature): ≥ 100 mg/mL | solubility at 72 h ([3]; Labrafac, oil or lipid, Labrafac, room temperature): 1.2 ± 0.01 mg/mL (≈ 3.53 mM) | solubility at 72 h ([3]; Labrasol, aqueous with cosolvent or surfactant or cyclodextrin, Labrasol, room temperature): 36.4 ± 2.9 mg/mL (≈ 107 mM) | solubility at 72 h ([3]; PEG 300, organic solvent or mixture, PEG 300, room temperature): 36.6 ± 1.12 mg/mL (≈ 108 mM) | solubility at 72 h ([3]; PEG 400, organic solvent or mixture, PEG 400, room temperature): 35.7 ± 1.41 mg/mL (≈ 105 mM) | solubility at 72 h ([3]; Tween 80, aqueous with cosolvent or surfactant or cyclodextrin, Tween 80, room temperature): 20.3 ± 5.39 mg/mL (≈ 59.6 mM) | solubility at 72 h ([3]; dimethyl acetamide, organic solvent or mixture, Dimethyl acetamide, room temperature): ≥ 100 mg/mL | solubility at 72 h ([3]; ethanol, organic solvent or mixture, Ethanol, room temperature): 6.3 ± 0.29 mg/mL (≈ 18.5 mM) | solubility at 72 h ([3]; oleic acid, oil or lipid, Oleic Acid, room temperature): 2.2 ± 0.02 mg/mL (≈ 6.46 mM) | solubility at 72 h ([3]; soybean oil, oil or lipid, Soy bean oil, room temperature): 1.1 ± 0.02 mg/mL (≈ 3.23 mM) | logP [4]: 3.48 ± 0.03 | recovery at 2 h [6, 9]: 89.9 ± 4.7% | recovery at 4 h [6, 9]: 97.5 ± 1.5% | recovery at 6 h [6, 9]: 96.2 ± 5.6% | recovery at 2 h [6, 10]: 94.7 ± 7.9% | recovery at 4 h [6, 10]: 99.7 ± 4.5% | recovery at 6 h [6, 10]: 98.4 ± 6.2% | recovery at 2 h [6, 11]: 96.4 ± 2.8% | recovery at 4 h [6, 11]: 98.5 ± 1.1% | recovery at 6 h [6, 11]: 97.1 ± 4.8% | recovery at 2 h [6, 12]: 96.1 ± 2.4% | recovery at 4 h [6, 12]: 89.7 ± 8.8% | recovery at 6 h [6, 12]: 95.2 ± 2.2% | AUC(0-inf) ([8]; male, Sprague Dawley, plasma): 3900 ng·h/mL | Cmax ([8]; male, Sprague Dawley, plasma): 7640 ± 1980 ng/mL | clearance ([8]; male, Sprague Dawley, plasma, read-out: Cl (total body clearance)): 8.9 ± 1.66 mL/min/kg | half-life ([8]; male, Sprague Dawley, plasma, read-out: T1/2α (distribution half-life of α-phase)): 0.11 ± 0.036 h | half-life ([8]; male, Sprague Dawley, plasma, read-out: T1/2β (elimination half-life of β-phase)): 1.23 ± 0.42 h | half-life ([8]; male, Sprague Dawley, plasma, read-out: T1/2γ (elimination half-life of γ-phase)): 19.7 ± 5.09 h | Vd ([8]; male, Sprague Dawley, plasma, read-out: V1 (volume of distribution of central compartment)): 0.278 ± 0.0642 L/kg | Vd ([8]; male, Sprague Dawley, plasma, read-out: Vss (volume of distribution at steady state)): 7.73 ± 1.22 L/kg | A (coefficient of α-phase) [8]: 6528.9 ± 1996.01 ng/mL | B (coefficient of β-phase) [8]: 1038.5 ± 546.09 ng/mL | C (coefficient of γ-phase) [8]: 75.1 ± 20.24 ng/mL | V2 (volume of distribution of first peripheral compartment) [8]: 0.5595 ± 0.20603 L/kg | V3 (volume of distribution of second peripheral compartment) [8]: 6.8665 ± 1.11754 L/kg
Compound: COc1ccc(/C=N/NC(=O)CSc2nc3ccccc3[nH]2)cc1 [GMC1]
concentration range inhibiting cell proliferation [5]: low micromolar | concentration range inhibiting receptor activity [7]: low to mid micro-molar | concentration range inhibiting receptor activity (androgen receptor (AR)): low to mid micro-molar
